Laboratory results published in patent publication US9040747B2, “Method for producing reduced coenzyme Q10, method for stabilizing same, and composition comprising same” (Kaneka Corporation, priority 2009, dated 2015).

Experiments:
[1] = Reduction of oxidized coenzyme Q10 by amino acid in ethanol, HPLC proportion of reduced coenzyme Q10; settings: 78° C., 16 hours, nitrogen atmosphere; for Proportion of reduced coenzyme Q10: Example 1: 6 equivalents amino acid; for Comparative Example 2: proportion of reduced coenzyme Q10: 6 equivalents amino acid
Protocol: (§1) The purity of reduced coenzyme Q10 and the weight ratio of reduced coenzyme Q10 to oxidized coenzyme Q10 were determined by HPLC analysis in the Examples.
Crystalline oxidized coenzyme Q10 (0.3 g (i.e., 0.36 mmol)) was added to ethanol (4.5 g). […] The obtained mixtures were stirred and heated at 78° C. for 16 hours under a nitrogen atmosphere.

[2] = Reduction of oxidized coenzyme Q10 by amino acid in Span 80/glycerin/Tween 80/MCT, HPLC proportion of reduced coenzyme Q10; settings: Span 80, glycerin, Tween 80, MCT, 80° C., 16 hours, nitrogen atmosphere; for Proportion of reduced coenzyme Q10: Example 2 / Comparative Example 1: 6 equivalents; for Comparative Example 3: proportion of reduced coenzyme Q10: 6 equivalents amino acid
Protocol: as §1
(§2) Column: […] C18 (Waters): 250 mm (length)×4.6 mm (inner diameter); mobile phase: C2H5OH:CH3OH=4:3 (v:v); detection wavelength: 210 nm; flow rate: 1 ml/min; retention time for reduced coenzyme Q10: 9.1 min.; retention time for oxidized coenzyme Q10: 13.3 min.
Crystalline oxidized coenzyme Q10 (0.3 g (i.e., 0.36 mmol)) and tryptophan (6 equivalents (i.e., 2.16 mmol)) were added to a liquid mixture of Span 80 (0.4 g), glycerin (0.3 g), Tween 80 (4.9 g), and MCT (1.4 g). The obtained mixture was stirred and heated at 80° C. for 16 hours under a nitrogen atmosphere.
(§3) Crystalline oxidized coenzyme Q10 (0.3 g (i.e., 0.36 mmol)) was added to a liquid mixture of Span 80 (0.4 g), glycerin (0.3 g), Tween 80 (4.9 g), and MCT (1.4 g). L-cysteine or N-acetylcysteine (6 equivalents (i.e., 2.16 mmol) each) was separately added thereto. The obtained mixtures were stirred and heated at 80° C. for 16 hours under a nitrogen atmosphere.
as §3, with “One of the amino acids” for “L-cysteine or N-acetylcysteine”, “each) listed in table 3” for “each)”

[3] = Reduction of oxidized coenzyme Q10 by amino acid in condensed ricinoleate (CR-310)/MCT, HPLC proportion of reduced coenzyme Q10; settings: condensed ricinoleate (CR-310) and MCT, 80° C., 16 hours, nitrogen atmosphere; for Comparative Example 5: proportion of reduced coenzyme Q10: 6 equivalents amino acid
Protocol: as §1, §2
Crystalline oxidized coenzyme Q10 (0.3 g (i.e. 0.36 mmol)) and tryptophan (6 equivalents (i.e., 2.16 mmol)) were added to a liquid mixture of condensed ricinoleate (CR-310, Sakamoto Yakuhin Kogyo Co., Ltd.) (3.8 g) and MCT (3.8 g). The obtained mixture was stirred and heated at 80° C. for 16 hours under a nitrogen atmosphere. The reaction solution was analyzed by HPLC after the reaction.
Crystalline oxidized coenzyme Q10 (0.3 g (i.e., 0.36 mmol)) was added to a liquid mixture of condensed ricinoleate (CR-310, Sakamoto Yakuhin Kogyo Co., Ltd.) (3.8 g) and MCT (3.8 g). One of the amino acids (6 equivalents (i.e., 2.16 mmol) each) listed in table 3 was separately added thereto. The obtained mixtures were stirred and heated at 80° C. for 16 hours under a nitrogen atmosphere.

[4] = Reduction of oxidized coenzyme Q10 by amino acid in limonene, HPLC proportion of reduced coenzyme Q10; settings: 85° C., 16 hours, nitrogen atmosphere; for proportions of reduced coenzyme Q10: Example 3: 6 equivalents; for Comparative Example 4: proportion of reduced coenzyme Q10: 6 equivalents amino acid
Protocol: as §1, §2
Crystalline oxidized coenzyme Q10 (0.3 g (i.e. 0.36 mmol)) was added to limonene (4.5 g). Proline (6 equivalents (i.e., 2.16 mmol)) or serine (6 equivalents (i.e. 2.16 mmol)) was separately added thereto. The obtained mixtures were stirred and heated at 85° C. for 16 hours under a nitrogen atmosphere. The reaction solutions were analyzed by HPLC after the reaction.
Crystalline oxidized coenzyme Q10 (0.3 g (i.e., 0.36 mmol)) was added to limonene (4.5 g). One of the amino acids (6 equivalents (i.e., 2.16 mmol) each) listed in table 3 was separately added thereto. The obtained mixtures were stirred and heated at 85° C. for 16 hours under a nitrogen atmosphere.

N=C(N)NCCC[C@H](N)C(=O)O [Arginine]
Proportion of reduced coenzyme Q10 [1]: 35% by weight

N[C@@H](CS)C(=O)O [L-cysteine]
Proportion of reduced coenzyme Q10 [2]: 7% by weight

CC(=O)N[C@@H](CS)C(=O)O [N-acetylcysteine]
Proportion of reduced coenzyme Q10 [2]: 3% by weight

N[C@@H](Cc1c[nH]c2ccccc12)C(=O)O [Tryptophan]
Proportion of reduced coenzyme Q10 [1]: 21% by weight
Proportion of reduced coenzyme Q10 ([3]; Example 4: 6 equivalents): 5 % by weight
Proportion of reduced coenzyme Q10 [2]: 33% by weight

Lysine•n hydrate
Proportion of reduced coenzyme Q10 [1]: 69% by weight

O=C(O)[C@@H]1CCCN1 [Proline]
Proportion of reduced coenzyme Q10 [1]: 6% by weight
proportions of reduced coenzyme Q10 [4]: 8 % by weight

C[C@H](N)C(=O)O [Alanine]
Comparative Example 2: proportion of reduced coenzyme Q10 [1]: 0%
Comparative Example 4: proportion of reduced coenzyme Q10 [4]: 0%
Comparative Example 5: proportion of reduced coenzyme Q10 [3]: 0%
Comparative Example 3: proportion of reduced coenzyme Q10 [2]: 0%

CC[C@H](C)[C@H](N)C(=O)O [Isoleucine]
Comparative Example 2: proportion of reduced coenzyme Q10 [1]: 1%
Comparative Example 4: proportion of reduced coenzyme Q10 [4]: 0%
Comparative Example 5: proportion of reduced coenzyme Q10 [3]: 0%
Comparative Example 3: proportion of reduced coenzyme Q10 [2]: 1%

N[C@@H](CO)C(=O)O [Serine]
Proportion of reduced coenzyme Q10 [1]: 5% by weight
proportions of reduced coenzyme Q10 [4]: 3 % by weight

CC(C)[C@H](N)C(=O)O [Valine]
Comparative Example 2: proportion of reduced coenzyme Q10 [1]: 1%
Comparative Example 4: proportion of reduced coenzyme Q10 [4]: 0%
Comparative Example 5: proportion of reduced coenzyme Q10 [3]: 0%
Comparative Example 3: proportion of reduced coenzyme Q10 [2]: 0%

NCC(=O)O [Glycine]
Comparative Example 2: proportion of reduced coenzyme Q10 [1]: 0%
Comparative Example 4: proportion of reduced coenzyme Q10 [4]: 0%
Comparative Example 5: proportion of reduced coenzyme Q10 [3]: 1%
Comparative Example 3: proportion of reduced coenzyme Q10 [2]: 0%
